We go through 18 compounds from patent US12570988B2, “Aptamers that bind thiamine analogs and derivatives” (MeiraGTx Gene Regulation Limited, priority 2020, dated 2026).

The structures appear in SMILES notation.

Test [1] has as its system riboswitch 15D10. Put plainly: Luciferase reporter with 15D10 riboswitch (Luci-15D10) in AML12 cells. The test is classed as cell-based, mouse. The following applies: Mus musculus, AML12, 24 h, 50 μM, AML12 cells, read-out: Fold increase in riboswitch 15D10-regulated luciferase expression, AML. A general note: Reporter assays use an easily measured gene product as a stand-in for the process of interest.

In test [2] the test system is riboswitch 15D10. Put plainly: Luciferase reporter with 15D10 riboswitch (Luci-15D10) in HEK 293 cells. The following applies: Homo sapiens, HEK293, 24 h, 50 μM, HEK 293 cells, read-out: Fold increase in riboswitch 15D10-regulated luciferase expression, HEK. The test is classed as cell-based, human. On the procedure: Transfection: 3.5×10^4 human embryonic kidney (HEK) 293 cells were plated in a 96-well flat bottom plate the day before transfection. Plasmid DNA (500 ng) was added to a tube or a 96-well U-bottom plate. […] Then, 50 μL of this diluted transfection reagent was added to the DNA, mixed, and incubated at RT for 20 min. Finally, 7 μL of this solution was added to a well of cells in the 96-well plate. Four hours after transfection, medium containing transfection solution was replaced by medium containing either TPP, fursultiamine, prosultiamine, bisbentiamine, beclotiamine hydrochloride, or sulbutiamine as aptamer inducers.
Firefly luciferase assay of cultured cells: Twenty-four hours after media change, plates were removed from the incubator, and equilibrated to RT for several minutes on a lab bench, then aspirated. Glo-lysis buffer (Promega, 100 μL, RT) was added, and the plates allowed to remain at RT for at least 5 minutes. Then, the well contents were mixed by 50 μL trituration, and 20 μL of each sample was mixed with 20 μL of bright-glo reagent (Promega) that had been diluted to 10% in glo-lysis buffer. 96 wells were spaced on an opaque white 384-well plate. Following a 5 min incubation at RT, luminescence was measured using a Tecan machine with 500 ms read time. The luciferase activity was expressed as mean arbitrary light units (ALU)±S.D., and fold induction was calculated as the quotient of the luciferase activity obtained from cells with TPP or analog treatment divided by the luciferase activity obtained from cells without TPP or analog treatment.

For the compound `COCCOc1ccc(C(=O)S/C(CCO)=C(/C)N(C=O)Cc2cnc(C)nc2N)cc1` [Compound M82, (Z)—S-(2-(N-((4-amino-2-methylpyrimidin-5-yl)methyl)formamido)-5-hydroxypent-2-en-3-yl) 4-(2-methoxyethoxy)benzothioate], the fold induction at 50 µM turned out to be 73.9 with riboswitch 15D10 [1] (Table 2) and 89.2 in the test on riboswitch 15D10 [2] (Table 2).

Turning to `C/C(=C(\CCO)SC(=O)/C=C/c1ccc2ccccc2c1)N(C=O)Cc1cnc(C)nc1N` [Compound M88, S—((Z)-2-(N-((4-amino-2-methylpyrimidin-5-yl)methyl)formamido)-5-hydroxypent-2-en-3-yl) (E)-3-(naphthalen-2-yl)prop-2-enethioate], the fold induction at 50 µM was determined as 355 in the test on riboswitch 15D10 [1] (Table 2) and 216 with riboswitch 15D10 [2] (Table 2).

For the compound `C/C(=C(\CCO)SCOC(=O)c1cccc2ccccc12)N(C=O)Cc1cnc(C)nc1N` [Compound M97, (Z)-((2-(N-((4-amino-2-methylpyrimidin-5-yl)methyl)formamido)-5-hydroxypent-2-en-3-yl)thio)methyl 1-naphthoate], the fold induction at 50 µM in the test with riboswitch 15D10 [1] (Table 2) is 126; in the test on riboswitch 15D10 [2] (Table 2), 299.

Take `C/C(=C(\CCO)SCOC(=O)c1cc2ccccc2c2ccccc12)N(C=O)Cc1cnc(C)nc1N` [Compound M98, (Z)-((2-(N-((4-amino-2-methylpyrimidin-5-yl)methyl)formamido)-5-hydroxypent-2-en-3-yl)thio)methyl phenanthrene-9-carboxylate]: the fold induction at 50 µM worked out at 57.7 in the test on riboswitch 15D10 [1] (Table 2) and 13.6 in the test on riboswitch 15D10 [2] (Table 2).

Regarding `C/C(=C(\CCO)SCOC(=O)c1ccc2c(c1)C(C)(C)CCC2(C)C)N(C=O)Cc1cnc(C)nc1N` [Compound M99, (Z)-((2-(N-((4-amino-2-methylpyrimidin-5-yl)methyl)formamido)-5-hydroxypent-2-en-3-yl)thio)methyl 5,5,8,8-tetramethyl-5,6,7,8-tetrahydronaphthalene-2-carboxylate], the figures for the fold induction at 50 µM with riboswitch 15D10 [1] (Table 2) and in the test on riboswitch 15D10 [2] (Table 2) were 0.4 and 0.2, respectively.

With `CCOc1ccc2ccccc2c1C(=O)OCS/C(CCO)=C(/C)N(C=O)Cc1cnc(C)nc1N` [Compound M100, (Z)-((2-(N-((4-amino-2-methylpyrimidin-5-yl)methyl)formamido)-5-hydroxypent-2-en-3-yl)thio)methyl 2-ethoxy-1-naphthoate], the fold induction at 50 µM is 0.4 in the test on riboswitch 15D10 [1] (Table 2) and 1.1 with riboswitch 15D10 [2] (Table 2).

Regarding `C/C(=C(\CCO)SCOC(=O)C(C)(C)Cc1ccc2ccccc2c1)N(C=O)Cc1cnc(C)nc1N` [Compound M101, (Z)-((2-(N-((4-amino-2-methylpyrimidin-5-yl)methyl)formamido)-5-hydroxypent-2-en-3-yl)thio)methyl 2,2-dimethyl-3-(naphthalen-2-yl)propanoate], the fold induction at 50 µM with riboswitch 15D10 [1] (Table 2) came out at 128; with riboswitch 15D10 [2] (Table 2), 88.6.

With `C/C(=C(\CCO)SCOC(=O)C(C)(c1ccccc1)c1ccccc1)N(C=O)Cc1cnc(C)nc1N` [Compound M103, (Z)-((2-(N-((4-amino-2-methylpyrimidin-5-yl)methyl)formamido)-5-hydroxypent-2-en-3-yl)thio)methyl 2,2-diphenylpropanoate], the fold induction at 50 µM with riboswitch 15D10 [1] (Table 2) is 0.5; in the test on riboswitch 15D10 [2] (Table 2) it was 0.9.

For `C/C(=C(\CCO)SCOC(=O)C(c1ccccc1)(c1ccccc1)c1ccccc1)N(C=O)Cc1cnc(C)nc1N` [Compound M105, (Z)-((2-(N-((4-amino-2-methylpyrimidin-5-yl)methyl)formamido)-5-hydroxypent-2-en-3-yl)thio)methyl 2,2,2-triphenylacetate], the fold induction at 50 µM in the test with riboswitch 15D10 [1] (Table 2) and in the test on riboswitch 15D10 [2] (Table 2) was 0.2 in each case.

As for `C/C(=C(\CCO)SCOC(=O)C(C)(C)c1ccc2ccccc2c1)N(C=O)Cc1cnc(C)nc1N` [Compound M107, (Z)-((2-(N-((4-amino-2-methylpyrimidin-5-yl)methyl)formamido)-5-hydroxypent-2-en-3-yl)thio)methyl 2-methyl-2-(naphthalen-2-yl)propanoate], the fold induction at 50 µM came out at 40.2 in the test on riboswitch 15D10 [1] (Table 2) and 26 in the test with riboswitch 15D10 [2] (Table 2).

For `COc1ccc2c(C(=O)S/C(CCO)=C(/C)N(C=O)Cc3cnc(C)nc3N)cccc2c1` [Compound M108, (Z)—S-(2-(N-((4-amino-2-methylpyrimidin-5-yl)methyl)formamido)-5-hydroxypent-2-en-3-yl) 6-methoxynaphthalene-1-carbothioate], the fold induction at 50 µM with riboswitch 15D10 [1] (Table 2) came out at 129; in the test on riboswitch 15D10 [2] (Table 2), 75.8.

Take `CCOc1ccc(C(=O)S/C(CCO)=C(/C)N(C=O)Cc2cnc(C)nc2N)c2ccccc12` [Compound M109, (Z)—S-(2-(N-((4-amino-2-methylpyrimidin-5-yl)methyl)formamido)-5-hydroxypent-2-en-3-yl) 4-ethoxynaphthalene-1-carbothioate]: the fold induction at 50 µM in the test on riboswitch 15D10 [1] (Table 2) came out at 87.3; in the test on riboswitch 15D10 [2] (Table 2) it was 22.6.

`CCc1ccc(C(=O)S/C(CCO)=C(/C)N(C=O)Cc2cnc(C)nc2N)c2ccccc12` [Compound M110, (Z)—S-(2-(N-((4-amino-2-methylpyrimidin-5-yl)methyl)formamido)-5-hydroxypent-2-en-3-yl) 4-ethylnaphthalene-1-carbothioate]: the fold induction at 50 µM with riboswitch 15D10 [1] (Table 2) was 146; in the test with riboswitch 15D10 [2] (Table 2) it was 65.7.

Regarding `C/C(=C(\CCO)SC(=O)c1cccc2c(Br)cccc12)N(C=O)Cc1cnc(C)nc1N` [Compound M111, (Z)—S-(2-(N-((4-amino-2-methylpyrimidin-5-yl)methyl)formamido)-5-hydroxypent-2-en-3-yl) 5-bromonaphthalene-1-carbothioate], the fold induction at 50 µM was found to be 175 with riboswitch 15D10 [1] (Table 2) and 181 in the test with riboswitch 15D10 [2] (Table 2).

As for `C/C(=C(\CCO)SC(=O)c1ccccc1Oc1ccccc1)N(C=O)Cc1cnc(C)nc1N` [Compound M113, (Z)—S-(2-(N-((4-amino-2-methylpyrimidin-5-yl)methyl)formamido)-5-hydroxypent-2-en-3-yl) 2-phenoxybenzothioate], the fold induction at 50 µM is 272 with riboswitch 15D10 [1] (Table 2), 348 in the test with riboswitch 15D10 [1] (Table 3), 213 in the test on riboswitch 15D10 [2] (Table 2) and 265 in the test on riboswitch 15D10 [2] (Table 3).

`C/C(=C(\CCO)SC(=O)c1ccc(C(C)(C)C)cc1)N(C=O)Cc1cnc(C)nc1N` [Compound M114, (Z)—S-(2-(N-((4-amino-2-methylpyrimidin-5-yl)methyl)formamido)-5-hydroxypent-2-en-3-yl) 4-(tert-butyl)benzothioate]: the fold induction at 50 µM was 88.8 with riboswitch 15D10 [1] (Table 2) and 50.1 in the test with riboswitch 15D10 [2] (Table 2).

Turning to `CCOc1cc(C(C)(C)C)ccc1C(=O)S/C(CCO)=C(/C)N(C=O)Cc1cnc(C)nc1N` [Compound M115, (Z)—S-(2-(N-((4-amino-2-methylpyrimidin-5-yl)methyl)formamido)-5-hydroxypent-2-en-3-yl) 4-(tert-butyl)-2-ethoxybenzothioate], the fold induction at 50 µM in the test with riboswitch 15D10 [1] (Table 2) came to 52.1; in the test on riboswitch 15D10 [2] (Table 2) it was 19.9.

As to `C/C(=C(\CCO)SC(=O)c1c(F)cccc1Oc1ccccc1)N(C=O)Cc1cnc(C)nc1N` [Compound M126, (Z)—S-(2-(N-((4-amino-2-methylpyrimidin-5-yl)methyl)formamido)-5-hydroxypent-2-en-3-yl) 2-fluoro-6-phenoxybenzothioate], the values for the fold induction at 50 µM in the test on riboswitch 15D10 [1] (Table 3) and in the test with riboswitch 15D10 [2] (Table 3) were 305 and 147, respectively.
